Test results taken from patent US20090012103A1, “SUBSTITUTED HETEROCYCLIC COMPOUNDS” (priority 2007, published 2009).

Key:
[1] = molecular target: wild-type human cardiac sodium channel, hNav1.5 (Homo sapiens, UniProt Q14524); assay: Late INa screening assay (late sodium current, PatchXpress whole cell patch clamp); assay type: cell-based; conditions: compound at 10 μM; read-out: Late INa % blk
[2] = molecular target: hERG potassium channel (Homo sapiens, UniProt Q12809); assay: hERG screening assay (PatchXpress patch clamp, CHO cell line)
Chain of hERG potassium channel (Q12809 whole entry): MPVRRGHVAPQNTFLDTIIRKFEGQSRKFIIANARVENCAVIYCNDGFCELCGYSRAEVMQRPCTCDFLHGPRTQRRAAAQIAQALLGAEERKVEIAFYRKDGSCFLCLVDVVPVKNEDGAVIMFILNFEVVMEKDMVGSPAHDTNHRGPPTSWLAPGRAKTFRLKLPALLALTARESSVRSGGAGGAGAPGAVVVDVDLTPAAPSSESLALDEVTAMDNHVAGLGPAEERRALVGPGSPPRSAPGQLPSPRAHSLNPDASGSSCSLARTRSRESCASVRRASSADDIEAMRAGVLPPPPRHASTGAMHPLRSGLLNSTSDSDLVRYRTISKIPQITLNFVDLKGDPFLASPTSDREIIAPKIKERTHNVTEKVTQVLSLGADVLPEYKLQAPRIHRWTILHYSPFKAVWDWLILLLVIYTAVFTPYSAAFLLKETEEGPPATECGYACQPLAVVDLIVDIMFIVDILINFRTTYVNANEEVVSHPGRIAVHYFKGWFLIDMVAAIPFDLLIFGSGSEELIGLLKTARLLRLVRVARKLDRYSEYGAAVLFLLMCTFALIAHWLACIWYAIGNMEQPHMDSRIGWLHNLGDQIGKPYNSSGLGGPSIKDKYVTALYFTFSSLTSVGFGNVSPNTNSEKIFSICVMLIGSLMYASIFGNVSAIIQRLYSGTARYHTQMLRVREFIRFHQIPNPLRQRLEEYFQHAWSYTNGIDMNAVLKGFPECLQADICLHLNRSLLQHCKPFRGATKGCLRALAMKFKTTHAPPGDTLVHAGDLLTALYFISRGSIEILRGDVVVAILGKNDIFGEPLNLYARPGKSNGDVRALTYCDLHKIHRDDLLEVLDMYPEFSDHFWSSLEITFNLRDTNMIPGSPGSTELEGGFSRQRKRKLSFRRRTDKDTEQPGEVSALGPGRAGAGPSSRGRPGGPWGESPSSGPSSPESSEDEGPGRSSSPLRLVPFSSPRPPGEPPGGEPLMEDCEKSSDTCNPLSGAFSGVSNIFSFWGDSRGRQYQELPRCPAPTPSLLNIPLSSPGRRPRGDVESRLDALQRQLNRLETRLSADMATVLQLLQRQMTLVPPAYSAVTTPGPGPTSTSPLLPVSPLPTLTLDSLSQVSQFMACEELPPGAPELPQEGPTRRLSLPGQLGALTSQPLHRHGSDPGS
Description: Compounds were screened to test their activity in blocking the hERG potassium channel. The hERG channel is heterologously expressed in a CHO (Chinese Hamster Ovary) cell line. Cells are maintained with standard tissue culture procedures and stable channel expression is maintained with 500 μg/ml G418 in the culture medium. Cells are harvested for testing on the PatchXpress automated patch clamp with Accumax (Innovative Cell Technologies, San Diego, Calif.) to isolate single cells.
The following solutions are used for electrophysiological recordings. The external solution contains: 2 mM CaCl2; 2 mM MgCl2; 4 mM KCl; 150 mM NaCl; 10 mM Glucose; 10 mM HEPES (pH 7.4 with 1M NaOH, osmolarity).
hERG channels are activated when the voltage is stepped to +20 mV from the −80 mV holding potential (see FIG. 3). During a 5 second step at +20 mV, the channels activate and then largely inactivate, so the currents are relatively small. Upon returning to −50 mV from +20 mV, hERG currents transiently become much larger as inactivation is rapidly removed and then the channel closes. The first step to −50 mV for 300 ms is used as a baseline for measuring the peak amplitude during the step to −50 mV after channel activation. The peak current at −50 mV is measured both under control conditions and after addition of compound.
All compounds are prepared as 10 mM DMSO stocks in glass vials. Stock solutions are mixed by vigorous vortexing and sonication for about 2 minutes at room temperature. For testing, compounds are diluted in glass vials using an intermediate dilution step in pure DMSO and then further diluted to working concentrations in external solution. Dilutions are prepared no longer than 20 minutes before use.
After achieving the whole-cell configuration, cells are monitored for 90 seconds to assess stability and washed with external solution for 66 seconds. The voltage protocol described above is then applied to the cells every 12 seconds and throughout the whole procedure. Only cells with stable recording parameters and meeting specified health criteria are allowed to enter the compound addition procedure.
External solution containing 0.1% DMSO (vehicle) is applied to the cells first to establish the control peak current amplitude. After allowing the current to stabilize for 3 to 5 minutes, 1 μM and then 10 μM test compounds are applied. Each compound concentration is added 4 times and cells are kept in test solution until the effect of the compound reaches steady state or for a maximum of 12 minutes. […] Washout in the external solution compartment is performed until the recovery of the current reaches steady state. Data are analyzed using DataXpress, Clampfit (Molecular Devices, Inc., Sunnyvale) and Origin 7 (Originlab Corp.)

Chain of wild-type human cardiac sodium channel, hNav1.5 (Q14524 whole entry): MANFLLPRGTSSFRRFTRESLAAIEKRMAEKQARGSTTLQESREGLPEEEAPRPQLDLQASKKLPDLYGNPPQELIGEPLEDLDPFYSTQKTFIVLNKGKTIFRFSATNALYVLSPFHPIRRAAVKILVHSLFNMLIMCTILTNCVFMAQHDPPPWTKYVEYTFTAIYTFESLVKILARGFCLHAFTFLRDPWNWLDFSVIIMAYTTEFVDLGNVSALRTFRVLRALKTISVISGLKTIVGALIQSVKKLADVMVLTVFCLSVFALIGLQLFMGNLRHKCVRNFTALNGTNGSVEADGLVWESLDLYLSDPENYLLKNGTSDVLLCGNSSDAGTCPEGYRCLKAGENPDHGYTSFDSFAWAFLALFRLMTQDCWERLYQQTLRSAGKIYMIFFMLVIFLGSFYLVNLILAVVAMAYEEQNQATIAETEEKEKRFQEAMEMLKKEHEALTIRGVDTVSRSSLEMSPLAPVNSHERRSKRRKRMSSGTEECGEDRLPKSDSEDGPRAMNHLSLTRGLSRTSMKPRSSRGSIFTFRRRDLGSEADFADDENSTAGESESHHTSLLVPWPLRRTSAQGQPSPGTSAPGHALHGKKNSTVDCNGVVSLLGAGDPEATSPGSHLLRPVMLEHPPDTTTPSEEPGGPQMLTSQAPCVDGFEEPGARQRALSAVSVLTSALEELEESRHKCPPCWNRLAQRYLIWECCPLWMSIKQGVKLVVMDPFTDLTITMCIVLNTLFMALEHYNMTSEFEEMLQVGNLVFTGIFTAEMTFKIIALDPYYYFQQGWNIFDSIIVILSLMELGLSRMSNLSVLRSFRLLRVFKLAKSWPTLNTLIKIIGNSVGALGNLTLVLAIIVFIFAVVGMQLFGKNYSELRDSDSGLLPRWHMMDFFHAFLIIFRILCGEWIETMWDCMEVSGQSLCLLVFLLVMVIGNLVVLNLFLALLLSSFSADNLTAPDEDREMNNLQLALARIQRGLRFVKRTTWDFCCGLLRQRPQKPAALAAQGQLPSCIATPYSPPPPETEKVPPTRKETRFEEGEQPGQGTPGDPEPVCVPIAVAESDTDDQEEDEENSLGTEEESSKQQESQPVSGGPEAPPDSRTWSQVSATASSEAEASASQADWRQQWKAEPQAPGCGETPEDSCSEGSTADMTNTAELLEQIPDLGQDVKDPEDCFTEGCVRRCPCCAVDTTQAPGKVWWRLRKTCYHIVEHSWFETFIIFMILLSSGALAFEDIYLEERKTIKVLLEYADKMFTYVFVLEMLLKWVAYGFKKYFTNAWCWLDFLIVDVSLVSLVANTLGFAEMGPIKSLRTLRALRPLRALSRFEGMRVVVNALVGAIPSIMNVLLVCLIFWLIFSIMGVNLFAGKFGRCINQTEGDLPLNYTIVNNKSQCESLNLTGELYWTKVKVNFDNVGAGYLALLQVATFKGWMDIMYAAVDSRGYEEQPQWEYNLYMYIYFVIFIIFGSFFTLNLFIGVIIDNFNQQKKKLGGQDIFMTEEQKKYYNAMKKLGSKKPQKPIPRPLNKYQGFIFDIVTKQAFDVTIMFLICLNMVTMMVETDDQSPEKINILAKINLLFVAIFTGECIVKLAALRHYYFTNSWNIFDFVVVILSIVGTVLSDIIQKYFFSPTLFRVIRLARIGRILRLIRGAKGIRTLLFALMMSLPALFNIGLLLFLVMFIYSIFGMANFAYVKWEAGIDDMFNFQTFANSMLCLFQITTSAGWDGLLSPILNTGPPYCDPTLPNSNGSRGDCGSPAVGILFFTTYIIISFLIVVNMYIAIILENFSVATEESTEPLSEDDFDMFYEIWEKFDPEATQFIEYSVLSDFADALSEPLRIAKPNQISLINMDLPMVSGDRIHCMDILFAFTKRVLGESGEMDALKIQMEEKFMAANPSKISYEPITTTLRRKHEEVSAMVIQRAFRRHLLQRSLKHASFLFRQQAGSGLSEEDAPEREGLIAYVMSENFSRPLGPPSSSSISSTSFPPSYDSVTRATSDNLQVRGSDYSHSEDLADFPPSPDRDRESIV

CC1=C(C(=O)OCc2ccccc2)C(c2csc3ccccc23)n2nnnc2N1 (stereo not shown) [PT-042, benzyl 7-(benzo[b]thiophen-3-yl)-5-methyl-4,7-dihydrotetrazolo[1,5-a]pyrimidine-6-carboxylate]
inhibition at 10 µM [1]: 76.5%
hERG Patch Clamp hERG % blk ([2]; 1 μM): 11.0%
hERG Patch Clamp hERG % blk ([2]; 10 μM): 52.5%

CCOC(=O)C1=C(C)NC(C)=C(C(=O)OCC)C1c1sc2ccccc2c1C [PT-116, diethyl 2,6-dimethyl-4-(3-methylbenzo[b]thiophen-2-yl)-1,4-dihydropyridine-3,5-dicarboxylate]
hERG Patch Clamp hERG % blk ([2]; 1 μM): 22.9%
hERG Patch Clamp hERG % blk ([2]; 10 μM): 66.0%

N#CC1=C(N)OC2=C(C(=O)CC(c3ccccc3)C2)C1c1ccco1 (stereo not shown) [PT-104, 2-amino-4-(furan-2-yl)-5-oxo-7-phenyl-5,6,7,8-tetrahydro-4H-chromene-3-carbonitrile]
inhibition at 10 µM [1]: 14.3%
hERG Patch Clamp hERG % blk ([2]; 1 μM): 18.0%
hERG Patch Clamp hERG % blk ([2]; 10 μM): 46.0%

CC1=C(C(=O)OCc2ccccc2)C(c2c(Br)sc3ccccc23)n2nnnc2N1 (stereo not shown) [PT-386, benzyl 7-(2-bromobenzo[b]thiophen-3-yl)-5-methyl-4,7-dihydrotetrazolo[1,5-a]pyrimidine-6-carboxylate]
inhibition at 10 µM [1]: 79.2%
hERG Patch Clamp hERG % blk ([2]; 1 μM): 10.0%
hERG Patch Clamp hERG % blk ([2]; 10 μM): 16.5%

CC1=C(C(=O)O[C@@H](C)c2ccccc2)C(c2cc3ccccc3o2)n2nnnc2N1 (stereo partly drawn) [PT-059, (S)-1-phenylethyl 7-(benzofuran-2-yl)-5-methyl-4,7-dihydrotetrazolo[1,5-a]pyrimidine-6-carboxylate]
hERG Patch Clamp hERG % blk ([2]; 1 μM): 10.0%
hERG Patch Clamp hERG % blk ([2]; 10 μM): 66.5%

CC1=C(C(=O)OCc2ccccc2)C(c2ccccc2-c2ccc(N3CCOCC3)cc2)n2nnnc2N1 (stereo not shown) [PT-360, benzyl 5-methyl-7-(4′-morpholinobiphenyl-2-yl)-4,7-dihydrotetrazolo[1,5-a]pyrimidine-6-carboxylate]
inhibition at 10 µM [1]: 7.2%

CC1=C(C(=O)OCc2ccccc2)C(c2cccc3ccccc23)c2cn[nH]c2N1 (stereo not shown) [PT-367, benzyl 6-methyl-4-(naphthalen-1-yl)-4,7-dihydro-1H-pyrazolo[3,4-b]pyridine-5-carboxylate]
inhibition at 10 µM [1]: 16.1%

CC1=C(C(=O)OCc2ccccc2)C(c2ccsc2)n2nnnc2N1 (stereo not shown) [PT-041, benzyl 5-methyl-7-(thiophen-3-yl)-4,7-dihydrotetrazolo[1,5-a]pyrimidine-6-carboxylate]
inhibition at 10 µM [1]: 41.4%

CCOC(=O)C1=C(C)Nc2nnnn2C1c1ccccc1Oc1ccc(C#N)cc1 (stereo not shown) [PT-485, ethyl 7-(2-(4-cyanophenoxy)phenyl)-5-methyl-4,7-dihydrotetrazolo[1,5-a]pyrimidine-6-carboxylate]
inhibition at 10 µM [1]: 5.2%

CC1=C(C(=O)OCc2ccccc2)C(c2ccc3ccccc3c2)C(C(=O)OCc2ccccc2)=C(C)N1 [PT-129, dibenzyl 2,6-dimethyl-4-(naphthalen-2-yl)-1,4-dihydropyridine-3,5-dicarboxylate]
inhibition at 10 µM [1]: 17.6%

CCOC(=O)C1=C(C)NC2=C(C(=O)CCC2)C1c1ccccc1-c1ccc(C(=O)O)cc1 (stereo not shown) [PT-250, 2′-(3-(ethoxycarbonyl)-2-methyl-5-oxo-1,4,5,6,7,8-hexahydroquinolin-4-yl)biphenyl-4-carboxylic acid]
inhibition at 10 µM [1]: 7.6%

CC1=C(C(=O)N2CCN(c3ccc(C(=O)O)cc3)CC2)C(c2cccc3ccccc23)C2=C(CCCC2=O)N1 (stereo not shown) [PT-297, 4-(4-(2-methyl-4-(naphthalen-1-yl)-5-oxo-1,4,5,6,7,8-hexahydroquinoline-3-carbonyl)piperazin-1-yl)benzoic acid]
inhibition at 10 µM [1]: 4.9%

CCOC(=O)C1=C(C)NC(C)=C(C(=O)OCC)C1c1ccc(OC)cc1OC [PT-429, diethyl 4-(2,4-dimethoxyphenyl)-2,6-dimethyl-1,4-dihydropyridine-3,5-dicarboxylate]
inhibition at 10 µM [1]: 14.9%

CC1=C(C(=O)OCc2ccccc2)C(c2ccc(S(C)(=O)=O)cc2)n2nnnc2N1 (stereo not shown) [PT-355, benzyl 5-methyl-7-(4-(methylsulfonyl)phenyl)-4,7-dihydrotetrazolo[1,5-a]pyrimidine-6-carboxylate]
inhibition at 10 µM [1]: 14.8%

CC1=C(C(=O)OCc2ccccc2)C(c2ccccc2Br)c2cn[nH]c2N1 (stereo not shown) [PT-330, benzyl 4-(2-bromophenyl)-6-methyl-4,7-dihydro-1H-pyrazolo[3,4-b]pyridine-5-carboxylate]
inhibition at 10 µM [1]: 21.2%

COc1ccc2c(C3C(C(=O)OCc4ccccc4)=C(C)Nc4nnnn43)ccc(OC)c2c1 (stereo not shown) [PT-033, benzyl 7-(4,6-dimethoxynaphthalen-1-yl)-5-methyl-4,7-dihydrotetrazolo[1,5-a]pyrimidine-6-carboxylate]
inhibition at 10 µM [1]: 23.3%

CC1=C(C(=O)OCc2ccccc2)C(c2ccsc2B(O)O)n2nnnc2N1 (stereo not shown) [PT-277, 3-(6-(benzyloxycarbonyl)-5-methyl-4,7-dihydrotetrazolo[1,5-a]pyrimidin-7-yl)thiophen-2-ylboronic acid]
inhibition at 10 µM [1]: 18%

CCOC(=O)C1=C(C)Nc2nnnn2C1c1ccccc1OCc1ccc(C(=O)OCC)cc1 (stereo not shown) [PT-482, ethyl 7-(2-(4-(ethoxycarbonyl)benzyloxy)phenyl)-5-methyl-4,7-dihydrotetrazolo[1,5-a]pyrimidine-6-carboxylate]
inhibition at 10 µM [1]: 3.2%

CC1=C(C(=O)OCc2ccccc2)[C@@H](c2ccccc2-c2ccc(C(N)=O)cc2)n2nnnc2N1 [PT-242, (R)-benzyl 7-(4′-carbamoylbiphenyl-2-yl)-5-methyl-4,7-dihydrotetrazolo[1,5-a]pyrimidine-6-carboxylate]
inhibition at 10 µM [1]: 11%

CC1=C(C(=O)OCc2ccccc2)C(c2ccc(-n3ccnc3)cc2)n2nnnc2N1 (stereo not shown) [PT-402, benzyl 7-(4-(1H-imidazol-1-yl)phenyl)-5-methyl-4,7-dihydrotetrazolo[1,5-a]pyrimidine-6-carboxylate]
inhibition at 10 µM [1]: 18.3%

CC1=C(C(=O)OCc2ccccc2)C(c2ccc(-c3nnn[nH]3)cc2)n2nnnc2N1 (stereo not shown) [PT-403, benzyl 7-(4-(1H-tetrazol-5-yl)phenyl)-5-methyl-4,7-dihydrotetrazolo[1,5-a]pyrimidine-6-carboxylate]
inhibition at 10 µM [1]: 9.7%

CC1=C(C(=O)OCc2ccccc2)C(c2cccc3cccnc23)n2nnnc2N1 (stereo not shown) [PT-037, benzyl 5-methyl-7-(quinolin-8-yl)-4,7-dihydrotetrazolo[1,5-a]pyrimidine-6-carboxylate]
inhibition at 10 µM [1]: 34.4%

CC1=C(C(=O)OC(C)C)C(c2cnn(-c3ccc(F)cc3)c2C)C(C(=O)OC(C)C)=C(C)N1 [PT-127, diisopropyl 4-(1-(4-fluorophenyl)-5-methyl-1H-pyrazol-4-yl)-2,6-dimethyl-1,4-dihydropyridine-3,5-dicarboxylate]
inhibition at 10 µM [1]: 1.1%

CC1=C(C(=O)OCc2ccccc2)C(c2ccc(N(C)C)cc2)n2nnnc2N1 (stereo not shown) [PT-410, benzyl 7-(4-(dimethylamino)phenyl)-5-methyl-4,7-dihydrotetrazolo[1,5-a]pyrimidine-6-carboxylate]
inhibition at 10 µM [1]: 11.4%

CC1(C)CC(=O)C2=C(C1)OC(N)=C(C#N)C2c1cccc(C(=O)O)c1 (stereo not shown) [PT-098, 3-(2-amino-3-cyano-7,7-dimethyl-5-oxo-5,6,7,8-tetrahydro-4H-chromen-4-yl)benzoic acid]
inhibition at 10 µM [1]: -27.9%

CCOC(=O)C1=C(C)NC2=C(C(=O)CCC2)C1c1c(OC)ccc2ccccc12 (stereo not shown) [PT-134, ethyl 4-(2-methoxynaphthalen-1-yl)-2-methyl-5-oxo-1,4,5,6,7,8-hexahydroquinoline-3-carboxylate]
inhibition at 10 µM [1]: 15.5%
